# Where two headings read alike, the source gives them in different places.
# Key:
# K. pneumoniae EN006 = test: MIC, WT (EN006 = EN0006, ATCC 13883); type: cell-based, Klebsiella pneumoniae
# Citrobacter sp. EN0465 = test: MIC; type: cell-based; details: Citrobacter, read-out: MIC
# K. pneumoniae EN0463 = test: MIC; type: cell-based, Klebsiella pneumoniae; details: Klebsiella pneumoniae, read-out: MIC
# E. coli EN002 = test: MIC, DtoIC; type: cell-based, Escherichia coli; details: Escherichia coli, read-out: MIC
# P. aeruginosa EN0422 = test: MIC; type: cell-based, Pseudomonas aeruginosa; details: Pseudomonas aeruginosa, read-out: MIC
# M. luteus EN0455 = test: MIC; type: cell-based, Micrococcus luteus; details: Micrococcus luteus, read-out: MIC
# S. sonnei APV00908 = test: MIC and antibiogram; type: cell-based; details: Shigella sonnei, Table 22A
# P. aeruginosa EN0460 = test: MIC; type: cell-based, Pseudomonas aeruginosa; details: Pseudomonas aeruginosa, read-out: MIC
# K. pneumoniae EN0144 = test: MIC, MBL (VIM-1); type: cell-based; details: Klebsiella pneumoniae, read-out: MIC
# A. baumannii EN007 = test: MIC, WT (EN007 = EN0007); type: cell-based, Acinetobacter baumannii
# P. aeruginosa EN004 = test: MIC, WT (EN004 = EN0004); type: cell-based, Pseudomonas aeruginosa
# K. pneumoniae EN0245 = test: MIC, colistinR; type: cell-based; details: Klebsiella pneumoniae, read-out: MIC
# P. mirabilis ST19 EN0445 = test: MIC; type: cell-based, Proteus mirabilis; details: Proteus mirabilis, read-out: MIC
# K. pneumoniae EN0249 = test: MIC, colistinR; type: cell-based; details: Klebsiella pneumoniae, read-out: MIC
# [1] = combination AZT+trimethoprim+uridine, Table 17B
# [2] = combination FdUrd+trimethoprim+uridine, Table 19
# [3] = combination didanosine+trimethoprim+uridine, Table 20
smiles,measurement,setting,value
"COc1cc(Cc2cnc(N)nc2N)cc(OC)c1OC [Trimethoprim, trimethoprim]",MIC,"K. pneumoniae EN006; Klebsiella pneumoniae, EN006, Combination 2 AZT+trimethoprim+uridine+thymidine, Table 16, read-out: MIC",0.5 µg/mL
same,MIC,"K. pneumoniae EN006; Klebsiella pneumoniae, EN006, combination AZT+trimethoprim+uridine, Table 6, read-out: MIC",0.06 µg/mL
same,MIC,"K. pneumoniae EN006; Klebsiella pneumoniae, EN006, combination FdUrd+trimethoprim+uridine, Table 8, read-out: MIC",1 µg/mL
same,MIC,"K. pneumoniae EN006; Klebsiella pneumoniae, EN006, combination didanosine+trimethoprim+uridine, Table 10, read-out: MIC",1 µg/mL
same,MIC,K. pneumoniae EN006; [1],0.25 µg/mL
same,MIC,K. pneumoniae EN006; [2],1 µg/mL
same,MIC,K. pneumoniae EN006; [3],1 µg/mL
same,MIC,"Citrobacter sp. EN0465; SP.EN0465, Combination 1 AZT+trimethoprim+uridine, Table 16",> 4 µg/mL
same,MIC,"Citrobacter sp. EN0465; SP.EN0465, Combination 2 AZT+trimethoprim+uridine+thymidine, Table 16",> 4 µg/mL
same,MIC,"Citrobacter sp. EN0465; SP.EN0465, combination AZT+trimethoprim+uridine, Table 6",> 4 µg/mL
same,MIC,"Citrobacter sp. EN0465; SP.EN0465, combination FdUrd+trimethoprim+uridine, Table 8",> 8 µg/mL
same,MIC,"Citrobacter sp. EN0465; SP.EN0465, combination didanosine+trimethoprim+uridine, Table 10",> 8 µg/mL
same,MIC,"K. pneumoniae EN0463; EN0463, combination AZT+trimethoprim+uridine, Table 6",0.06 µg/mL
same,MIC,"K. pneumoniae EN0463; EN0463, combination FdUrd+trimethoprim+uridine, Table 8",0.5 µg/mL
same,MIC,"K. pneumoniae EN0463; EN0463, combination didanosine+trimethoprim+uridine, Table 10",0.5 µg/mL
same,MIC,"E. coli EN002; EN002, Combination 1 AZT+trimethoprim+uridine, Table 16",0.016 µg/mL
same,MIC,"E. coli EN002; EN002, combination AZT+trimethoprim+uridine, Table 6",0.016 µg/mL
same,MIC,"E. coli EN002; EN002, combination FdUrd+trimethoprim+uridine, Table 8",0.064 µg/mL
same,MIC,"E. coli EN002; EN002, combination didanosine+trimethoprim+uridine, Table 10",0.064 µg/mL
same,MIC,"P. aeruginosa EN0422; EN0422, Combination 1 AZT+trimethoprim+uridine, Table 16",> 8 µg/mL
same,MIC,"P. aeruginosa EN0422; EN0422, Combination 2 AZT+trimethoprim+uridine+thymidine, Table 16",> 4 µg/mL
same,MIC,"P. aeruginosa EN0422; EN0422, combination AZT+trimethoprim+uridine, Table 6",> 4 µg/mL
same,MIC,"P. aeruginosa EN0422; EN0422, combination FdUrd+trimethoprim+uridine, Table 8",> 8 µg/mL
same,MIC,"P. aeruginosa EN0422; EN0422, combination didanosine+trimethoprim+uridine, Table 10",> 8 µg/mL
same,MIC,"M. luteus EN0455; EN0455, Combination 1 AZT+trimethoprim+uridine, Table 16",2 µg/mL
same,MIC,"M. luteus EN0455; EN0455, Combination 2 AZT+trimethoprim+uridine+thymidine, Table 16",> 4 µg/mL
same,MIC,"M. luteus EN0455; EN0455, combination AZT+trimethoprim+uridine, Table 6",2 µg/mL
same,MIC,"M. luteus EN0455; EN0455, combination FdUrd+trimethoprim+uridine, Table 8",4 µg/mL
same,MIC,"M. luteus EN0455; EN0455, combination didanosine+trimethoprim+uridine, Table 10",4 µg/mL
same,MIC,"S. sonnei APV00908; APV00908, combination AZT+trimethoprim+uridine",0.03 µg/mL
same,MIC,"S. sonnei APV00908; APV00908, combination FdUrd+trimethoprim+uridine",> 8 µg/mL
same,MIC,"P. aeruginosa EN0460; EN0460, Combination 1 AZT+trimethoprim+uridine, Table 16",> 4 µg/mL
same,MIC,"P. aeruginosa EN0460; EN0460, Combination 2 AZT+trimethoprim+uridine+thymidine, Table 16",> 4 µg/mL
same,MIC,"P. aeruginosa EN0460; EN0460, combination AZT+trimethoprim+uridine, Table 6",> 4 µg/mL
same,MIC,"P. aeruginosa EN0460; EN0460, combination FdUrd+trimethoprim+uridine, Table 8",> 8 µg/mL
same,MIC,"P. aeruginosa EN0460; EN0460, combination didanosine+trimethoprim+uridine, Table 10",> 8 µg/mL
same,MIC,"K. pneumoniae EN0144; EN0144, combination AZT+trimethoprim+uridine, Table 17B",1 µg/mL
same,MIC,"K. pneumoniae EN0144; EN0144, combination FdUrd+trimethoprim+uridine, Table 19",> 8 µg/mL
same,MIC,"K. pneumoniae EN0144; EN0144, combination didanosine+trimethoprim+uridine, Table 20",> 8 µg/mL
same,MIC,"A. baumannii EN007; Acinetobacter baumannii, EN007, Combination 1 AZT+trimethoprim+uridine, Table 16, read-out: MIC",> 4 µg/mL
same,MIC,"A. baumannii EN007; Acinetobacter baumannii, EN007, Combination 2 AZT+trimethoprim+uridine+thymidine, Table 16, read-out: MIC",> 4 µg/mL
same,MIC,"A. baumannii EN007; Acinetobacter baumannii, EN007, combination AZT+trimethoprim+uridine, Table 6, read-out: MIC",> 4 µg/mL
same,MIC,"A. baumannii EN007; Acinetobacter baumannii, EN007, combination FdUrd+trimethoprim+uridine, Table 8, read-out: MIC",> 8 µg/mL
same,MIC,"A. baumannii EN007; Acinetobacter baumannii, EN007, combination didanosine+trimethoprim+uridine, Table 10, read-out: MIC",> 8 µg/mL
same,MIC,A. baumannii EN007; [1],>4 µg/mL
same,MIC,A. baumannii EN007; [2],>8 µg/mL
same,MIC,A. baumannii EN007; [3],>8 µg/mL
same,MIC,"P. aeruginosa EN004; Pseudomonas aeruginosa, EN004, Combination 1 AZT+trimethoprim+uridine, Table 16, read-out: MIC",> 4 µg/mL
same,MIC,"P. aeruginosa EN004; Pseudomonas aeruginosa, EN004, Combination 2 AZT+trimethoprim+uridine+thymidine, Table 16, read-out: MIC",> 4 µg/mL
same,MIC,"P. aeruginosa EN004; Pseudomonas aeruginosa, EN004, combination AZT+trimethoprim+uridine, Table 6, read-out: MIC",> 4 µg/mL
same,MIC,"P. aeruginosa EN004; Pseudomonas aeruginosa, EN004, combination FdUrd+trimethoprim+uridine, Table 8, read-out: MIC",> 8 µg/mL
same,MIC,"P. aeruginosa EN004; Pseudomonas aeruginosa, EN004, combination didanosine+trimethoprim+uridine, Table 10, read-out: MIC",> 8 µg/mL
same,MIC,P. aeruginosa EN004; [1],>4 µg/mL
same,MIC,P. aeruginosa EN004; [2],>8 µg/mL
same,MIC,P. aeruginosa EN004; [3],>8 µg/mL
same,MIC,"K. pneumoniae EN0245; EN0245, combination AZT+trimethoprim+uridine, Table 17B",1 µg/mL
same,MIC,"K. pneumoniae EN0245; EN0245, combination FdUrd+trimethoprim+uridine, Table 19",> 8 µg/mL
same,MIC,"K. pneumoniae EN0245; EN0245, combination didanosine+trimethoprim+uridine, Table 20",> 8 µg/mL
same,MIC,"P. mirabilis ST19 EN0445; ST19EN0445, Combination 1 AZT+trimethoprim+uridine, Table 16",1 µg/mL
same,MIC,"P. mirabilis ST19 EN0445; ST19EN0445, Combination 2 AZT+trimethoprim+uridine+thymidine, Table 16",> 4 µg/mL
same,MIC,"P. mirabilis ST19 EN0445; ST19EN0445, combination AZT+trimethoprim+uridine, Table 6",> 4 µg/mL
same,MIC,"P. mirabilis ST19 EN0445; ST19EN0445, combination FdUrd+trimethoprim+uridine, Table 8",1 µg/mL
same,MIC,"P. mirabilis ST19 EN0445; ST19EN0445, combination didanosine+trimethoprim+uridine, Table 10",2 µg/mL
same,MIC,"K. pneumoniae EN0249; EN0249, combination AZT+trimethoprim+uridine, Table 17B",1 µg/mL
same,MIC,"K. pneumoniae EN0249; EN0249, combination FdUrd+trimethoprim+uridine, Table 19",> 8 µg/mL
same,MIC,"K. pneumoniae EN0249; EN0249, combination didanosine+trimethoprim+uridine, Table 20",> 8 µg/mL
